Data from patent publication US20060188557A1, “Prepartaion for external percutaneous administration containing non-steroidal anti-inflammatory drug and interleukin-1 alpha production inhibitor” (Hisamitsu Pharmaceutical Co., Inc., priority 2003, published 2006).

Columns and labels:
[1] = tested on: auricle of a Balb/c mouse; test: In vivo photosensitivity test (ketoprofen-induced ear thickness increase after UVA); conditions: 20 μL on auricle, 40 J/cm^2 UVA, 24 hours
Protocol: The following experiment was conducted with reference to the method of Gerberick et al. (Food Chem. Toxicol., 27, 813-819(1989)) with some modifications. First, ethanol was used to prepare a mixed solution containing the test substances shown in Tables 4 and 5 {tert-butylhydroxyanisole (BHA), di-tert-butylhydroxytoluene […], propyl gallate} and 2% ketoprofen. As a control a 2% ketoprofen solution was prepared using ethanol. Next, 20 μL of each prepared solution (N=8) was applied onto the auricle of a Balb/c mouse (female, 9-11 weeks old), prior to irradiation with 40 J/cm^2 UVA. When 24 hours had passed after UVA irradiation, the ear thickness of the mouse was measured and the increase with respect to the initial ear thickness was calculated. […] The abbreviation “PG” in the tables stands for “propyl gallate”.

[2] = tested on: heparin-added rabbit venous blood (whole blood); test: In vitro phototoxicity test (ketoprofen-associated photohemolysis); type: cell-based; conditions: Oryctolagus cuniculus, light or radiation study, with ketoprofen, 7.5 J/cm^2 UVA
Protocol: The following experiment was conducted according to “Guidelines for basic biological tests of medical materials and devices”, Part VII “Hemolysis Test”. First, each of the test substances listed in Table I (Example 1), Table 2 (Example 2) and Table 3 (Example 3) {tert-butylhydroxyanisole (BHA), di-tert-butylhydroxytoluene (BHT), thymol, propyl gallate} and ketoprofen were dissolved in N,N-dimethylformamide (DMF) to 20-fold compared to the concentration shown in the tables (1000 μg/mL of ketoprofen). Also, after further diluting these solutions 5-fold in phosphate buffered saline (PBS), equal amounts of each test substance solution and the ketoprofen solution were combined. As a control, ketoprofen alone was dissolved in DMF to […], and diluted 10-fold with PBS to prepare a solution. These solutions were dispensed in 1 mL portions into a 24-well multiwell plate, and then 1 mL of PBS containing 40 μL of heparin-added rabbit venous blood (whole blood) per 5 mL was added to each to prepare reaction solutions.
An ultraviolet irradiating apparatus (UVP Lamp Fixture, UVP) equipped with two ultraviolet lamps (FL15BLB, Sankyo Denki) was used to irradiate the reaction solutions with 7.5 J/cm^2 UVA (ultraviolet rays of wavelength 320-400 nm) in an incubator set to 37° C., with the cover removed from the plate containing the reaction solutions (UVA is associated with drug-induced photosensitivity). During the ultraviolet irradiation, a 3 mm-thick glass plate was placed between the light source and the reaction solutions to cut ultraviolet rays of 320 nm wavelength and shorter. The incubation time was 60 minutes, including the irradiation time. After completion of the reaction, the solutions were centrifuged, the obtained 100 μL of supernatant (N=3) was transferred to a 96-well assay plate and the absorbance at 540 nm (Abs540) was measured as an index of hemolysis. The effects of each of the test substances in Tables 1 to 3 on ketoprofen-associated photohemolysis were evaluated as the hemolysis inhibition (%) with respect to the control group, calculated using Abs540.

[3] = tested on: IL-1α production in HPV16 immobilized human adult keratinocytes (KERTr); test: IL-1α production in ketoprofen-treated, UVA-irradiated keratinocytes (ELISA); type: cell-based; conditions: 75 μM ketoprofen, 6-8 J/cm^2 UVA, 24 hours after irradiation
Protocol: After adding a mixed solution of 75 μM ketoprofen and different concentrations of propyl gallate to a culturing medium (EpiLife™ Serum Free Medium E0151) (Cascade Biologics, Inc.) containing HPV16 immobilized human adult keratinocytes (KERTr) KUK001 (ATCC Co., Rockville, Md.), the mixture was incubated for 2 hours at […] in 5% carbon dioxide/95% air, and then irradiated with 6-8 J/cm^2 UVA. When 24 hours had passed after UVA irradiation, the IL-1α concentration of the culture supernatant was evaluated with an ELISA kit (R&D Systems, Inc.). As a control, there was used the above-mentioned culturing medium to which a solution of 75 μM ketoprofen alone was added, which was incubated for 2 hours at 37° C. in 5% carbon dioxide/95% air, and which was not irradiated with UVA.
An experiment was conducted in the same manner as Example 6 using di-tert-butylhydroxytoluene (BHT) instead of propyl gallate.

[4] = Synergistic phototoxicity-reducing action of combinations (method not described)

COc1ccc(O)cc1C(C)(C)C [BHA, 2-tert-butyl-4-oxyanisole]
Auricular edema inhibition (%) ([1]; 0.5% BHA with 2% ketoprofen in ethanol): 24%

Cc1cc(C(C)(C)C)c(O)c(C(C)(C)C)c1 [BHT, 2,6-di-tert-butyl-p-cresol]
hemolysis inhibition at 0.125 µg/mL ([2]; BHT 0.125 μg/mL, propyl gallate 0): -3.7%
hemolysis inhibition at 0.25 µg/mL ([2]; BHT 0.25 μg/mL, propyl gallate 0): 9.6%
hemolysis inhibition at 0.5 µg/mL ([2]; BHT 0.5 μg/mL, propyl gallate 0): 49.6%
hemolysis inhibition at 1 µg/mL ([2]; BHT 1 μg/mL, propyl gallate 0): 88.9%
Auricular edema inhibition (%) ([1]; 1.0% BHT with 2% ketoprofen in ethanol): 16%
IL-1α production (IL-1α concentration in the culture supernatant) [3]: IL-1α production is inhibited

CCCOC(=O)c1cc(O)c(O)c(O)c1 [Propyl gallate, propyl gallate]
hemolysis inhibition at 0.5 µg/mL ([2]; Table 1: propyl gallate 0.5 μg/mL, BHA 0): 25.5%
hemolysis inhibition at 1 µg/mL ([2]; Table 1: propyl gallate 1 μg/mL, BHA 0): 66%
hemolysis inhibition at 2 µg/mL ([2]; Table 1: propyl gallate 2 μg/mL, BHA 0): 88.9%
hemolysis inhibition at 0.5 µg/mL ([2]; Table 2: propyl gallate 0.5 μg/mL, BHT 0): 3.6%
hemolysis inhibition at 1 µg/mL ([2]; Table 2: propyl gallate 1 μg/mL, BHT 0): 45.4%
hemolysis inhibition at 2 µg/mL ([2]; Table 2: propyl gallate 2 μg/mL, BHT 0): 91.2%
hemolysis inhibition at 0.5 µg/mL ([2]; Table 3: propyl gallate 0.5 μg/mL, thymol 0): 2.1%
hemolysis inhibition at 1 µg/mL ([2]; Table 3: propyl gallate 1 μg/mL, thymol 0): 63.8%
hemolysis inhibition at 2 µg/mL ([2]; Table 3: propyl gallate 2 μg/mL, thymol 0): 88%
Auricular edema inhibition (%) ([1]; Table 4: 0.2% PG with 2% ketoprofen in ethanol): 21%
Auricular edema inhibition (%) ([1]; Table 5: 0.2% PG with 2% ketoprofen in ethanol): 19%
IL-1α production (IL-1α concentration in the culture supernatant) [3]: IL-1α production is inhibited

Cc1ccc(C(C)C)c(O)c1 [Thymol, 6-isopropyl-m-cresol]
hemolysis inhibition at 0.5 µg/mL ([2]; thymol 0.5 μg/mL, propyl gallate 0): 10.8%
hemolysis inhibition at 1 µg/mL ([2]; thymol 1 μg/mL, propyl gallate 0): 41.1%
hemolysis inhibition at 2 µg/mL ([2]; thymol 2 μg/mL, propyl gallate 0): 70.7%

CCCCCCCCC(=O)NCc1ccc(O)c(OC)c1 [nonylic vanillylamide]
synergistic effect on the phototoxicity-reducing action [4]: No such synergistic effect is observed
